Assay results as given in patent publication US12215078B2, “Compositions and methods for protein labeling, modification, analysis, and targeted delivery” (University of Massachusetts, priority 2018, dated 2025).
“Also recorded” adds a separate entry of the source.

Legend:
[1] = Thiol-click (click-to-release) kinetics followed by NMR; type: physicochemical; conditions: for thiol-click reaction rate (in words): MeOH-d4, A1:thiol 2:1 (FIG. 2B); for relative reactivity in thiol and amine addition reactions (in words): both thiol and amine addition (FIG. 2B-2C)
Procedure: (§1) 10 μmol (2 eq.) of A1 molecules was dissolved in single or mixed deuterated solvents (the volume of solvent depends on the solubility of A1). Then, 5 μmol (1 eq.) of 2-(2-Methoxyethoxy) ethanethiol or benzylamine was added to the solution. The reaction was immediately followed by NMR. The final concentration of A1 for each molecule is shown at the end of supplementary information case by case. The conversion of thiol or amine was calculated from the integration of corresponding peaks by NMR and plotted against reaction time.
Compound 1, 2, 3, 4, 5, 8, 11, 12, 13: 10 μmol (2 eq.) of molecule 1, 2, 3, 4, 5, 8, 11, 12, 13 was dissolved in 1000 μL of MeOH-d4. Then, 5 μmol (1 eq.) of thiol was added to the solution. The reaction was immediately followed by NMR.
Compound 6, 7, 9: 10 μmol (2 eq.) of molecule 6, 7, 9 was dissolved in 500 μL of MeOH-d4 and 500 μL of 50 mM pH 7.4 phosphate buffer. Then, 5 μmol (1 eq.) of thiol or amine was added to the solution. The reaction was immediately followed by NMR.
Compound 10: 10 μmol (2 eq.) of molecule 10 was dissolved in 1000 μL of DMSO-d6 and 500 μL of 50 mM pH 7.4 phosphate buffer. Then, 5 μmol (1 eq.) of thiol or amine was added to the solution. The reaction was immediately followed by NMR.
Compound 14, 15, 16: 10 μmol (2 eq.) of molecule 14, 15, 16 was dissolved in dissolved in 500 μL of MeOH-d4 and 500 μL of 50 mM pH 6.2 phosphate buffer. Then, 5 μmol (1 eq.) of thiol or amine was added to the solution. The reaction was immediately followed by NMR.

[2] = Amine-click kinetics followed by NMR; type: physicochemical
Procedure: as §1
• Compound 1, 2, 3, 4, 5, 6, 7, 8, 9, 11, 12, 13: 10 μmol (2 eq.) of molecule 1, 2, 3, 4, 5, 6, 7, 8, 9, 11, 12, 13 was dissolved in 500 μL of MeOH-d4 and 500 μL of 50 mM pH 7.4 phosphate buffer. Then, 5 μmol (1 eq.) of benzylamine was added to the solution. The reaction was immediately followed by NMR.
Compound 10: 10 μmol (2 eq.) of molecule 10 was dissolved in 1000 μL of DMSO-d6 and 500 μL of 50 mM pH 7.4 phosphate buffer. Then, 5 μmol (1 eq.) of benzylamine was added to the solution. The reaction was immediately followed by NMR.
Compound 14, 15, 16: 10 μmol (2 eq.) of molecule 14, 15, 16 was dissolved in 800 μL of MeOH-d4 and 200 μL of 50 mM pH 7.4 phosphate buffer. Then, 5 μmol (1 eq.) of benzylamine was added to the solution. The reaction was immediately followed by NMR.

β-lactoglobulin B (βLGb) = biological target: T1, β-lactoglobulin B (βLGb) (Bos taurus, UniProt P02754); assay: βLGb labeling, ESI-MS and MS/MS of digests; type: biochemical; conditions: for modification sites / selectivity on βLGb: digest, MS/MS; for time until βLGb fully labelled: excess of reagent, disappearance of unmodified protein peaks in ESI-MS; for number of modifications in βLGb: mass shift, ESI-MS
T1 construct: purchased
T1 sequence (P02754 17-178): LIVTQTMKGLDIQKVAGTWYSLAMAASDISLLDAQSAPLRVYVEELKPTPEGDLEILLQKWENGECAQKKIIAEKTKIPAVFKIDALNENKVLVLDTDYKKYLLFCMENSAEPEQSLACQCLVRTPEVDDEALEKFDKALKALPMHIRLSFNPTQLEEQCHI
Procedure: For βLGb labeling reaction, βLGb was first denatured by 8 M of urea to expose the free cysteine. The denatured protein was then diluted with 50 mM pH 8.0 phosphate buffer, which results in a protein solution concentration of 100 μM. This protein solution was incubated with 20 equivalents of 1 for 5 min or with 20 equivalents of 8 for 40 min at room temperature to obtain the fully modified proteins respectively. After labeling, the reaction mixtures were injected immediately into an HPLC to remove excess labeling reagents and phosphate salts and then later analyzed by ESI-MS.
The labeled βLGb protein samples were first buffer-exchanged using 10K NMWL Amicon Ultra centrifugal filters (Millipore, Burlington, MA) with 100 mM triethylamine acetate (pH 8.0), and reconstituted with 1 M urea before enzymatic digestion. To reduce the disulfide bonds in βLGb, TCEP in water was added at a protein:TCEP molar ratio of 1:20, and the sample was incubated at room temperature for 10 min. To alkylate the reduced cysteines, iodoacetamide in water was added at a protein:iodoacetamide molar ratio of 1:80, and the sample was incubated in the dark at room temperature for 30 min. The denatured, reduced, and alkylated protein samples were then digested with trypsin at an enzyme: substrate ratio of 1:10. After 4 h of digestion at 37° C., the enzyme was separated from the mixture by centrifugation using a 10K NMWL Microcon filter (Millipore, Burlington, MA). The filtrate was then analyzed by LC-MS and LC-MS/MS.
To quench the labeling reaction and to remove excess labeling reagents and buffer salts, a Thermo Scientific Ultimate 3000 HPLC system (Thermo Scientific, Tewksbury, MA) with an OPTI-TRAP C4 reverse phase column (1×8 mm) was used. The protein was eluted using an acetonitrile gradient that increases from 1 to 99% over 12 min at a flow rate of 0.2 mL/min. The labeled protein was collected for proteolytic digestion or intact protein MS characterization.
Mass spectral analyses of the HPLC separated intact protein samples (Myo and βLGb) from the covalent labeling experiments were acquired on a Bruker AmaZon (Billerica, MA) quadrupole ion trap mass spectrometer equipped with an electrospray ionization source. The electrospray needle voltage was kept at 4 kV, and the capillary temperature was set to 250° C. Mass spectra of intact BCA protein samples were acquired on a Thermo Orbitrap Fusion Tribrid (Tewksbury, MA) mass spectrometer. The electrospray ionization source was typically operated at a needle voltage of 3800 V, and the ion transfer tube temperature was set to 325° C.
LC-MS and LC-MS/MS analyses of protein proteolytic fragments were conducted on a Thermo Orbitrap Fusion Tribrid (Tewksbury, MA) mass spectrometer. The electrospray ionization source was typically operated at a needle voltage of 2100 V, and the ion transfer tube temperature was set to 300° C. Tandem mass spectra were collected using CID with a normalized collision energy of 35%. Due to the large number of detectable peaks, an exclusion limit of 60 s was applied after five spectra had been collected for any given peak. The resolution of the Orbitrap was set to 60000.
Raw mass spectral data files were analyzed by Thermo Proteome Discoverer 2.2 software. Spectra were searched against the corresponding protein sequence. Variable modification by certain labeling reagents of the residues and the protein N-terminus was added as a dynamic modification. Other dynamic modifications such as oxidation of methionine and carboxyamidomethylation of cysteine were also used in the searches. Trypsin enzyme cleavage was selected, and a precursor mass tolerance of 10 ppm was used. Identifications of peptides and modifications at high confidence levels were used and were manually checked in all cases.

Myoglobin (Myo) = biological target: T2, Myoglobin (Myo) (Equus caballus, UniProt P68082); assay: Myoglobin reversible modification and biophysical characterization; type: biochemical
T2 construct: purchased
T2 sequence (P68082 whole entry): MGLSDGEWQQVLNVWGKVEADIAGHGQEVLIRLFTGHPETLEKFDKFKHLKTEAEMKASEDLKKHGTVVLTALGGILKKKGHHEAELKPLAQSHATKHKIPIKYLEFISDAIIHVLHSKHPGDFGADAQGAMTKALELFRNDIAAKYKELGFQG
Procedure: For Myoglobin (Myo) reversible modification reactions, the modified protein solution was prepared by reacting 100 μM of the Myo with 20 equivalents of 1 for 5 min in 50 mM pH 8.0 phosphate buffer at room temperature. The proteins were collected from HPLC purification from previous modification reactions, and the excess labeling reagents were removed from the reaction mixtures. The collected protein solution was characterized by ESI-MS or other biophysical characterizations such as Circular Dichroism (CD) and Ultraviolet-Visible Spectroscopy (UV-Vis). The same protein solution was also buffer-exchanged using 10K NMWL Amicon Ultra centrifugal filters (Millipore, Burlington, MA) with 50 mM pH 7.4 phosphate buffer to yield a 100 μM solution for further reverse reaction. […] After reverse modification reaction, the reaction mixture was injected to a LC-MS system for intact protein analyses. […]
Far-UV CD analyses were performed on a Jasco J-1500 spectropolarimeter. CD spectra were recorded at room temperature over a scan range of 260 to 200 nm. […]
Temperature dependent CD measurements were also performed for the protein samples to evaluate the thermal stability (melting temperature) of Myo before and after labeling. Ellipticity at 222 nm was recorded every 1° C. from 25° C. to 90° C. […] Samples were measured in triplicates and the results were shown in average values.

[3] = Thiol-triggered declick of thiol/amine click products followed by NMR; type: physicochemical
Procedure: Typically, product of thiol-A1 or amine-A1 click product was dissolved in single or mixed deuterated solvents (the volume of solvent depends on the solubility of A1 The volume of solvent depends on the solubility of click product). Then, thiol was added to the solution. The reaction was immediately followed by NMR.
Compound 17: 10 μmol (1 eq.) of 17 was dissolved in 500 μL of MeOH-d4 and 500 μL of 50 mM pH6.8 phosphate buffer. Then, 80 μmol (8 eq.) of thiol was added to the solution. Final concentration of 17 is 10 mM.
Compound 18: 10 μmol (1 eq.) of 18 was dissolved in 500 μL of MeOH-d4 and 500 μL of 50 mM pH7.4 phosphate buffer. Then, 80 μmol (8 eq.) of thiol was added to the solution. Final concentration of 18 is 10 mM.
Compound 19: 10 μmol (1 eq.) of 19 was dissolved in 500 μL of MeOH-d4 and 500 μL of 50 mM pH7.4 phosphate buffer. Then, 10 μmol (0.5 eq.) of thiol was added to the solution. Final concentration of 19 is 10 mM.
Compound 20: 10 μmol (1 eq.) of 20 was dissolved in 1000 μL of MeOH-d4 and 500 μL of 50 mM pH7.4 phosphate buffer. Then, 10 μmol (0.5 eq.) of thiol was added to the solution. Final concentration of 20 is 6.67 mM.
Compound 21: 10 μmol (1 eq.) of 21 was dissolved in 500 μL of MeOH-d4 and 500 μL of 50 mM pH7.4 phosphate buffer. Then, 10 μmol (0.5 eq.) of thiol was added to the solution. Final concentration of 21 is 10 mM. […]

With C=C(C[N+](CC)(CC)CC)C(=O)OC [Compound 1] the “time for completion of reaction with the thiol” value ([1]; 1H NMR, 0.5 equivalent of thiol, 50 mM pH 7.4 phosphate buffer (FIG. 7)) was 3 min, the “time for completion of reaction with benzylamine” value ([2]; pH 7.4) was about 50 min and the “modification sites / selectivity on βLGb” value (β-lactoglobulin B (βLGb)) was “non-selective; also recorded: modifications of other nucleophilic residues including lysine, tyrosine and threonine”. For the same compound, the “time until βLGb fully labelled” value (β-lactoglobulin B (βLGb)) was at most 5 min, the “number of modifications in βLGb” value (β-lactoglobulin B (βLGb)) was “one to four” and the “reversal of myoglobin modification by thiol” value (Myoglobin (Myo); 10 equivalents of thiol for 2 hours) was “reversed to unmodified myoglobin”. For the same compound, the modifications on myoglobin (Myoglobin (Myo); treated with 1, ESI-MS) was “Multiple modifications”.

In the case of C=C(C[n+]1ccccc1)C(=O)OC [Compound 4], the “thiol-click reaction rate (in words)” value [1] is reported as “much slower” and the “reactivity toward benzylamine (in words)” value ([2]; pH maintained, deuterated MeOH/buffer mixed media (FIG. 2C)) is reported as “higher than 5”.

With C=C(C[N+](CC)(CC)CC)C(=O)NC [Compound 8] the “relative reactivity in thiol and amine addition reactions (in words)” value (“relative reactivity” for short) [1] was “considerably slower than the corresponding acrylates; also recorded: less reactive than ester 1”, the “modification sites / selectivity on βLGb” value (β-lactoglobulin B (βLGb)) was “only the free cysteine site was modified” and the “time until βLGb fully labelled” value (β-lactoglobulin B (βLGb)) was at most 40 min. For the same compound, the “number of modifications in βLGb” value (β-lactoglobulin B (βLGb)) was “one”.

For C=C(C[n+]1ccc(N(C)C)cc1)C(=O)OC [Compound 5], the “thiol-click reaction rate (in words)” value [1] was “much slower; also recorded: faster than 4”.

For C=C(CN(CC(=C)C(=O)OC)Cc1ccccc1)C(=O)OC [Compound 23], the “benzylamine (29) released in declick” value ([3]; 2 equivalents of T2, MeOH-d4 / 50 mM pH 7.4 phosphate buffer 2:1) was “More than 80%”.

For C=C(COC(C)=O)C(=O)NC [Compound 9], the “relative reactivity” value [1] was “considerably slower than the corresponding acrylates”.

For C=C(COC(=O)Nc1ccc([N+](=O)[O-])cc1)C(=O)NC [Compound 10], the “relative reactivity” value [1] was “considerably slower than the corresponding acrylates”.

With C=C(CSCCOCCOC)C(=O)OC [Compound 17] the “originally clicked T2 released in declick” value ([3]; 8 equivalents of ethanethiol (T1), MeOH-d4 / 50 mM pH 6.8 phosphate buffer 1:1) was 70%.
